The values below come from US12514814B2, “Composition containing extract of Lilium hansonii leichtlin ex baker” (LG HOUSEHOLD & HEALTH CARE LTD., priority 2019, dated 2026).

A short description of assay [1]: Glycation inhibitory activity using L-arginine and glucose. In kind it is biochemical. The following applies: 55 μg/ml; positive control; n=3. As to the method:
To confirm an antiglycation efficacy, glycation inhibitory activity was measured using L-arginine and glucose.
A solution of 1 M L-arginine and 1 M glucose in 1 M phosphate buffer (pH 7.4) was first prepared and diluted with 1 M phosphate buffer so that the concentration of the sample was 100 μg/ml, 1 M L-arginine and 1 M phosphate buffer were mixed in a ratio of 1:4, and 80 μl thereof was dispensed into each well of a 96-well plate. To this, each sample, which was diluted to 100 μg/ml, and 100 μl of 0.01 M aminoguanidine, which was used as a positive control, were added. After sufficiently mixing the sample, finally, glucose which was diluted with 1 M phosphate buffer so that the final concentration of glucose was 0.1 M was added and then reacted at 70° C. for four hours. In the 96-well plate, absorbance was measured at 420 nm using a spectrophotometer to measure a degree of glycation.
The glycation experimental group of Mathematical Formula 3 is an experimental group in which glycation was induced by adding 1 M L-arginine and 1 M glucose, and to measure the absorbance of a sample itself, absorbance was measured at 420 nm after adding only 1 M L-arginine and the sample and no glucose.
The glycation inhibitory activity can be calculated according to the following Mathematical Formula 3. Each group was tested three times, and an average value was obtained.

A further assay has as its system B-16 mouse melanoma cell. The assay can be described thus: Total melanin amount reduction. In kind it is cell-based. The settings on record: 100 μg/ml, three days. How it is done:
Each of Examples 1 to 3 and Comparative Examples 1 to 3 was added to a mouse melanoma cell (B-16 mouse melanoma cell) culture medium, and a whitening effect thereof at the cellular level was tested.
Each extract was tested after being added to the culture medium at a final concentration of 100 μg/ml, and arbutin, which was a control, was added to the medium at a concentration of 100 μg/ml. B-16 melanoma cells were treated with the experimental group or the control and then cultured for three days.
Subsequently, the cultured cells were treated with trypsin, removed from the culture vessel, and then centrifuged to extract melanin. The removed cells were treated with 1 ml of a sodium hydroxide solution (1 N) and then boiled for 10 minutes to dissolve melanin, and absorbance was measured at 400 nm using a spectrophotometer to measure the amount of produced melanin.
The amount of melanin was measured as absorbance per unit cell number (10^6 cells), and a ratio thereof relative to the total melanin amount of the control was calculated as an inhibition rate (%), and the results are summarized in Table 4.

The subject of assay [2] is human-derived fibroblasts. Put plainly: Effect of increasing total collagen amount (PICP EIA kit). The settings on record: 52.8 μg/ml; cultured one day; relative to control without additive; n=3. In kind it is cell-based. How it is done: The Lilium hansonii extracts and the three types of Lilium genus plant extracts were added to a culture medium containing human-derived fibroblasts, and then their effects of increasing a total collagen amount at the cellular level were compared. The increased total collagen amount was quantified using a Procollagen Type I C-Peptide Enzyme ImmunoAssay kit (PICP EIA kit). […] After adding each sample to a culture medium containing human-derived fibroblasts and culturing for one day, the culture medium was collected and a degree of increase in a total collagen amount at each concentration was measured at 450 nm using a PICP EIA kit and a spectrophotometer. For the comparison of effects, a degree of increase in a total collagen amount was measured in the same manner for a fibroblast culture medium to which no sample was added (control) and a sample to which vitamin C was added at a final concentration of 52.8 μg/ml. The total collagen amount was measured as UV absorbance, and a rate of increase in the total collagen amount was calculated as a ratio of a total collagen amount relative to that of the control, and the results are summarized in Table 1 below.

The test system of assay [3] is tyrosinase enzyme extracted from mushrooms. The assay can be described thus: Tyrosinase inhibition. In kind it is biochemical. The following applies: 52.8 μg/ml; positive control; n=3. How it is done:
A tyrosinase enzyme extracted from mushrooms and commercially available from SIGMA was used. First, tyrosine, a substrate, was dissolved in distilled water to make a solution having a concentration of 0.3 mg/ml, 1.0 ml of the solution was input into each test tube, and 1.0 ml of a potassium-phosphate buffer solution (concentration: 0.1 mol, pH: 6.8) and 0.7 ml of distilled water were added thereto. 0.2 ml of a sample solution, which had been prepared by adding one of Examples 1 to 3 of the present invention and Comparative Examples 1 to 3 to an ethanol solution at a final concentration of 100 μg/ml, was added to a reaction solution and then reacted in a 37° C. thermostat for 10 minutes. In this case, a control was prepared by adding only 0.2 ml of an ethanol solution instead of the sample solution, and vitamin C was used as a positive control. After adding 0.1 ml of a 2,500 units/ml tyrosinase solution, the reaction solution was again reacted in a 37° C. thermostat for 10 minutes. The test tube containing the reaction solution was quenched by placing in ice water to stop the reaction, and absorbance was measured at a wavelength of 475 nm using a photoelectric spectrometer, and the results are shown in Table 3 below. The tyrosinase inhibitory effect of each sample was calculated according to the following Mathematical Formula 2.

The next assay concerns Human dermal fibroblasts. The assay can be described thus: Hyaluronic acid synthesis promotion (Hyaluronan ELISA). In kind it is cell-based. The following applies: 10 ng/ml (10 ppb); positive control; 24 hours; control without additive = 100%. As to the method: Human dermal fibroblasts were cultured at a concentration of 1×10^5 cells/mL in a DMEM medium containing 10% fetal bovine serum and, after dispensing 500 μl thereof into each well of a 24-well plate, cultured for 18 hours. Subsequently, each sample was diluted in a DMEM medium not containing fetal bovine serum, and each sample was added at various concentrations. As a positive control, an epidermal growth factor (EGF) known to promote hyaluronic acid production was treated at a concentration of 10 ppb. After culturing for 24 hours, a cell culture medium was recovered, and the concentration of hyaluronic acid was measured using a Hyaluronan ELISA kit (R&D Systems).
In addition, the hyaluronic acid concentration of each experimental group treated with each sample was quantified based on the hyaluronic acid concentration (100%) of a control not containing an additive, and the results are shown in the following Table 5.

As for `N=C(N)NN` [Aminoguanidine, aminoguanidine], the “Glycation inhibition rate (%)” value in assay [1] turned out to be 54.89%. As to `OC[C@H]1O[C@@H](Oc2ccc(O)cc2)[C@H](O)[C@@H](O)[C@@H]1O` [Arbutin, arbutin], in the assay with B-16 mouse melanoma cell (absorbance at 400 nm per 10^6 cells, control 0.254), the “Total melanin amount (Abs)” value was 0.126 Abs. In the assay on B-16 mouse melanoma cell (Mus musculus, 72 h, relative to control, read-out: Inhibition rate (%) (total melanin)), the inhibition (in general, the percentage by which the read-out fell short of the control) at 100 µg/mL stood at 50.4%. Take `O=C1O[C@H]([C@@H](O)CO)C(O)=C1O` [Vitamin C, vitamin C]: the “Collagen increase rate (%)” value in assay [2] was 26%. Besides, the “Tyrosinase inhibition rate (%)” value in assay [3] is listed as 50%. Consider “EGF: epidermal growth factor known to promote hyaluronic acid production, positive control”, for which, in the assay with Human dermal fibroblasts, the “Hyaluronic acid (%)” value came to 150.9%.
